The source of these data is US20240342685A1, “ABSORBENT COMPOUNDS FOR CAPTURING CARBON DIOXIDE” (The Regents of the University of California, priority 2021, published 2024).

The structures appear in SMILES notation. Where two headings read alike, the source gives them in different places.

For data set [1] the following is noted: cited from earlier work.
The nature of data set [2]: Aspen Plus absorber/stripper process model, CO2 vapor liquid equilibrium. The note with it: 11% mole fraction. The text has this: For example, the suitability of a PEP variant for non-enzymatic carbon capture can be evaluated by modeling. The Electric Power Research Institute (EPRI; Palo Alto, CA) maintains and operates Aspen Plus process models based on the absorber/stripper configuration shown in FIG. 21 and standard operational parameters (e.g., as described in the Examples). These models are configured to accept generalized solvent (absorbent) properties and calculate the resulting energy penalty. Model inputs can include the solubility, viscosity, and heat capacity of the PEP variant, as well as the CO2 vapor liquid equilibrium (VLE) of the underlying carbon capture reaction equilibrium (absorption/desorption). VLE describes the number of moles CO2 per unit volume solution absorbed via reaction and dissolution as a function of CO2 partial pressure above solution. […] At higher temperature (e.g., 120° C. stripper), reactants are favored and HCO3 desorbs, releasing CO2 back into the gas phase for capture and compression. The difference ACO2 between these temperature extremes determines the absorption capacity of the solvent, or cyclic capacity of the absorber/stripper system.
These models can be used to quantify the energy penalty of a PEP variant for carbon capture chemistry relative to the MEA benchmark. […] The improvement can be evaluated at the temperatures of the absorber (40° C.) and stripper (120° C.).

Data set [3] can be described thus: Shear viscosity by Green-Kubo relation, MD simulation. The note with it: aqueous solution. On the procedure:
These simulations were performed under the same conditions and with the same forcefield as the PEP simulations. The shear viscosity of a liquid can be computed through several different atomistic simulation methods. […] In this method, the shear viscosity is obtained from the integral over time of the pressure tensor autocorrelation function: where V is the volume of the system, kB is the Boltzmann constant, T is temperature, Pxy denotes the element xy of the pressure tensor, and the angle bracket refers to the ensemble average. Viscosity plays an important role in pumping costs for moving aqueous PEP solutions between the absorber and stripper.

The conditions of data set [4]: in water at 298 K; non-reactive MD literature; cited from earlier work.
The conditions of data set [5]: pure water; cited from earlier work.

On to `CC(=O)O` [Acetic Acid], for which the results for the “Enthalpy of Solution, Literature value” in data set [1] (3 m to 4 m), in data set [1] (3 m to 5 m) and in data set [1] (4 m to 5 m) were -0.0461 kcal/mol, -0.0418 kcal/mol and -0.088 kcal/mol, respectively.
In the case of `O=CO` [Formic Acid], the “Enthalpy of Solution, Literature value” in data set [1] (3 m to 4 m), in data set [1] (3 m to 5 m) and in data set [1] (4 m to 5 m) was 0 kcal/mol each time.
Consider `NCCO` [MEA, monoethanolamine], for which the “CO2 remaining bound in solution during absorber-stripper cycling” value in data set [2] (CCNG) amounted to 16%; in data set [2] (SCPC), 29%.
With `C=C(OP(=O)(O)O)C(=O)O` [PEP, phosphoenolpyruvate], the “viscosity relative to the standard MEA solution” value in data set [3] (45 to 55 wt %) was “roughly triple”. Further, the real viscosity entry in data set [3] (45 to 55 wt % (9.8 mol %), estimated) is reported as “about 3 mPa*s”.
Consider `O=C(O)O` [bicarbonate], for which the “diffusion coefficient, published literature” value in data set [4] is reported as 1.17×10^−9 m^2s^−1.
As for `O` [water], in data set [5], the “viscosity, expected value” is reported as “around 0.79 mPa·s”.
